# Tests used:
# ADP P2Y12 = molecular target: T1, ADP P2Y12 (Homo sapiens, UniProt Q9H244); assay: FLIPR calcium assay transducing Gi-coupled signaling to the Gq pathway (inhibition of calcium mobilization); format: cell-based; conditions: HEK 293 cells co-transfected with P2Y12 and Gqi5, ADP at EC60-70 dose
# T1 construct: expressed in transfected cells
# Source text: A FLIPR Calcium Assay Transducing Gi-Coupled Signaling to the Gq Pathway
# The ADP P2Y12 subtype is a Gi coupled GPCR, which mediates inhibition of adenylate cyclase leading to decreased cAMP while Gq proteins primarily activate phospholipase C, which stimulates inositol-1,4,5-triphosphate (IP3) formation and a subsequent increase in intracellular Ca^2+ concentration, which can be easily measured by FLIPR. Prior to the development of a method to convert a Gi coupled GPCR signaling to a Gq coupled GPCR signaling, a significant barrier existed for the functional testing and screening of Gi coupled GPCRs. One popular method, GTPγS migration, is slow, produces a small signal and generates radioactive waste. The discovery that a small switch in the amino acid sequence in the Gi protein could convert it to a protein mediating a Gq coupled response has led to the development of robust, high throughput assays for this valuable receptor subtype.
# The FLIPR-based HTS assay transducing the Gi signaling to the Gq pathway is described below.
# pcDNA3hygroP2Y12 containing a hygromycin resistance gene and pLEC1-Gqi5-HA containing a neomycin resistance gene (licensed from Molecular Devices, Sunnyvale, Calif.) were co-transfected into Human embryonic kidney (HEK) 293 cells with SuperFect (Qiagen, Valencia, Calif.). Cell clones were selected in the presence of 600 μg/ml hygromycin B (Life Technologies, Carlsbad, Calif.) and 1 mg/ml of G418 (Mediatech, Herndon, Va.). Drug resistant colonies were picked and screened by FLIPR and the gene expression was further confirmed by RT-PCR. Positive clones were maintained in growth medium (DMEM supplemented with 10% FBS, 1×p/s) containing 400 μg/ml of G418 and 200 μg/ml of hygromycin.
# The day before the assay, cells are seeded in clear, flat-bottom black-wall, tissue culture treated polystyrene 96- or 384-well plates and incubated at 37° C., 5% CO2. 50 μl of complete dye loading solution (FLIPR Calcium Assay Kit, Molecular Devices) was added to each well containing 100 μl of culture media. The cells were incubated for at least 30 min at 37° C., in 5% CO2 before initiating the assay on the FLIPR. The agonist effect of ADP was tested and EC50 was determined prior to compound testing. The EC60-70 dose was used.
# The antagonist compounds were prepared at 4× and the agonists were diluted at 5× the concentration desired in the test wells, and then aliquoted into the sample plates. The sample plates and the cell plate were placed in the FLIPR assay chamber. A first addition (50 μl) was made at the start of reading and a second addition (50 μl) was made after 5 min of reading. Raw fluorescence data was exported for each well and tabulated versus time within an ASCII file. Data was then imported into Excel and the peak response over the basal level was determined. The percent inhibition for each compound was calculated by the change in fluorescent density as a % inhibition of the control ADP response to obtain an IC50, as shown in Table 1 (wherein N/A means Not Applicable).
# P2Y12 receptor = molecular target: T2, P2Y12 receptor (Homo sapiens, UniProt Q9H244); assay: Whole cell receptor binding assay for 2-MeS[3H]-ADP; conditions: whole HEK 293 cells transfected with P2Y12; 2-MeS[3H]-ADP 3 nM; 30 min at 37° C.; read-out: Inhibition of Receptor Binding IC50
# T2 construct: expressed in transfected cells
# Procedure: A whole cell-binding assay for 2-MeS [^3H]-ADP (Custom synthesized by Amersham BioScience, Piscataway, N.J.) to the P2Y12 receptor was performed.
# A P2Y12 cDNA containing hygromycin resistant gene was transfected in HEK 293 cells. A stable cell line was obtained by a cloning selection method. The cells were cultured in DMEM supplemented with 10% FBS and 1× of p/s.
# On the day of the assay, the cells were harvested and resuspended in 0.25% BSA-DMEM and adjusted to a cell concentration of 1.6×10^6/ml. […] The reaction was then incubated for 30 min at 37° C. and stopped by adding cold DMEM. […] The plates were dyed in a 37° C. oven for 1-2 hours and 50 μl of MicroScint-20 (PerkinElmer) was added to each well. The radioactivity was measured using a TOPCOUNT beta counter (Packard).
# washed platelets = assay: In vitro platelet aggregation; format: cell-based; conditions: Homo sapiens, washed platelets from healthy volunteers, agonist (ADP) at 60-70% aggregation, % inhibition of control ADP response
# Procedure: Platelet aggregation studies were performed according to a published method (Bednar, B., Condra, C., Gould, R. J., and Connolly, T. M., Throm. Res., 77:453-463 (1995). Platelet-rich plasma (PRP) concentrates prepared from healthy volunteers who were aspirin free for at least 7 days by venipuncture using ACD-A as anticoagulant was purchased from Biological Specialties, Inc. (Colmar, Pa.). PRP was centrifuged at 730 g for 15 min. The platelet pellet was washed twice in CGS buffer (13 mM sodium citrate, 30 mM glucose, 120 mM NaCl, pH 6.5) containing 1 μ/ml apyrase (grade V, Sigma-Aldrich, St. Louis, Mo.), 1 mM EGTA, and resuspended in Tyrode's buffer (140 mM NaCl, 2.7 mM KCl, 12 mM NaHCO3, 0.76 mM Na2HPO4, 5.5 mM dextrose, 5.0 mM Hepes, 0.2% BSA, pH 7.4). The platelets were diluted to 3×10^8 platelets/ml and kept >45 min at 37° C. before use. 105 μl of washed platelets, 2 mM CaCl2 and […] of fibrinogen were added to a 96-well microliter plate.
# Platelet aggregation was initiated by the addition of serial concentrations of ADP (BioData Corp. Horsham, Pa.). Buffer was added to one set of control wells. The assay plate was stirred constantly and intermittently placed in a microplate reader (Softmax, Molecular Devices, Menlo Park, Calif.) to read optical density (650 nm) at 0 and 5 minutes after the addition of the compound solutions. Aggregation was calculated as the decrease in optical density between the time 0- and 5-min measurements and expressed as % of aggregation. For the inhibition assay, platelet aggregation was conducted as described above except for compound additions. Test compounds were prepared in 100% DMSO and stored.
# On the day of the assay, test compounds were diluted in the buffer containing 3% of DMSO as a 10× working solution. 15 μl of compound solutions were added to 105 μl of platelets 5 min prior to the addition of CaCl2 and fibrinogen.
# T1 sequence (Q9H244 whole entry): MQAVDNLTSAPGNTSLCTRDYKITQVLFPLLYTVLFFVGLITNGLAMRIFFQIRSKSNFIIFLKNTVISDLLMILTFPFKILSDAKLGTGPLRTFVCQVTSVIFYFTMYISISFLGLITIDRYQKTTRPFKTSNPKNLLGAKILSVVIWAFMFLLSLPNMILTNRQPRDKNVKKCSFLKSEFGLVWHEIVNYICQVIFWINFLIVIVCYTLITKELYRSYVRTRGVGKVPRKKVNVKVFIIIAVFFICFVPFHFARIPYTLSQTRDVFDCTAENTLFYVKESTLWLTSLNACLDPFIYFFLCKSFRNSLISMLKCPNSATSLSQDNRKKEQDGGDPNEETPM
# T2 sequence (Q9H244 whole entry): as above
smiles,measurement,setting,value
"CCCSc1nc(N[C@@H]2C[C@H]2c2ccccc2)c2nnn([C@@H]3C=C[C@H](O)[C@H]4OC(C)(C)O[C@H]43)c2n1 (mixture of isomers) [Cpd 10, (3aR,4S,7R,7aS)-2,2-dimethyl-7-{7-[(1RS,2SR)-2-phenyl-cyclopropylamino]-5-propylsulfanyl-[1,2,3]triazolo[4,5-d]pyrimidin-3-yl}-3a,4,7,7a-tetrahydro-benzo[1,3]dioxol-4-ol]",IC50,ADP P2Y12,> 30 µM
"CCCSc1nc(N[C@@H]2C[C@H]2c2ccccc2)c2nnn([C@@H]3C=C[C@H](OCCO)[C@@H](O)[C@H]3O)c2n1 (mixture of isomers) [Cpd 13, (1S,2S,3S,6R)-3-(2-hydroxy-ethoxy)-6-{7-[(1RS,2SR)-2-phenyl-cyclopropylamino]-5-propylsulfanyl-[1,2,3]triazolo[4,5-d]pyrimidin-3-yl}-cyclohex-4-ene-1,2-diol]",IC50,ADP P2Y12,> 30 µM
same,IC50,P2Y12 receptor,8.56 µM
"CCCSc1nc(N[C@@H]2C[C@H]2c2ccccc2)c2nnn([C@@H]3CC[C@H](OCCO)[C@@H](O)[C@H]3O)c2n1 (mixture of isomers) [Cpd 15, (1S,2S,3S,6R)-3-(2-hydroxy-ethoxy)-6-{7-[(1RS,2SR)-2-phenyl-cyclopropylamino]-5-propylsulfanyl-[1,2,3]triazolo[4,5-d]pyrimidin-3-yl}-cyclohexane-1,2-diol]",IC50,ADP P2Y12,2.63 µM
same,IC50,P2Y12 receptor,6.6 µM
"CCCSc1nc(N[C@@H]2C[C@H]2c2ccccc2)c2nnn(C3[C@@H](O)[C@@H](O)C(OCCO)[C@@H](O)[C@H]3O)c2n1 (mixture of isomers) [Cpd 12, (1R,2R,4S,5S)-3-(2-hydroxy-ethoxy)-6-{7-[(1RS,2SR)-2-phenyl-cyclopropylamino]-5-propylsulfanyl-[1,2,3]triazolo[4,5-d]pyrimidin-3-yl}-cyclohexane-1,2,4,5-tetraol]",IC50,ADP P2Y12,6.9 µM
same,IC50,P2Y12 receptor,2.2 µM
"CCCSc1nc(NC[C@H]2CCCO2)c2nnn([C@@H]3C=C[C@H](O)[C@@H](O)[C@H]3O)c2n1 [Cpd 2, (1S,2R,3S,6R)-6-(5-propylsulfanyl-7-{[(2R)-tetrahydro-furan-2-ylmethyl]-amino}-[1,2,3]triazolo[4,5-d]pyrimidin-3-yl)-cyclohex-4-ene-1,2,3-triol]",IC50,ADP P2Y12,> 30 µM
"CCCSc1nc(NC[C@@H]2CCCO2)c2nnn([C@@H]3C=C[C@H](O)[C@@H](O)[C@H]3O)c2n1 [Cpd 3, (1S,2R,3S,6R)-6-(5-propylsulfanyl-7-{[(2S)-tetrahydro-furan-2-ylmethyl]-amino}-[1,2,3]triazolo[4,5-d]pyrimidin-3-yl)-cyclohex-4-ene-1,2,3-triol]",IC50,ADP P2Y12,> 30 µM
same,IC50,P2Y12 receptor,4.75 µM
"CCCSc1nc(NCc2ccco2)c2nnn([C@@H]3C=C[C@H](O)[C@@H](O)[C@H]3O)c2n1 [Cpd 4, (1S,2R,3S,4R)-6-{7-[(furan-2-ylmethyl)-amino]-5-propylsulfanyl-[1,2,3]triazolo[4,5-d]pyrimidin-3-yl}-cyclohex-4-ene-1,2,3-triol]",IC50,ADP P2Y12,> 30 µM
"CCCSc1nc(NCC2CCCN2CC)c2nnn([C@@H]3C=C[C@H](O)[C@@H](O)[C@H]3O)c2n1 (stereo partly drawn) [Cpd 6, (1S,2R,3S,4R)-6-{7-[(1-ethyl-pyrrolidin-2-ylmethyl)-amino]-5-propylsulfanyl-[1,2,3]triazolo[4,5-d]pyrimidin-3-yl}-cyclohex-4-ene-1,2,3-triol]",IC50,ADP P2Y12,> 30 µM
"CCCSc1nc(NCCc2cccs2)c2nnn([C@@H]3C=C[C@H](O)[C@@H](O)[C@H]3O)c2n1 [Cpd 7, (1S,2R,3S,4R)-6-[5-propylsulfanyl-7-(2-thiophen-2-yl-ethylamino)-[1,2,3]triazolo[4,5-d]pyrimidin-3-yl]-cyclohex-4-ene-1,2,3-triol]",IC50,ADP P2Y12,14.7 µM
same,IC50,P2Y12 receptor,2.27 µM
"CCCSc1nc(NCc2cccn2C)c2nnn([C@@H]3C=C[C@H](O)[C@@H](O)[C@H]3O)c2n1 [Cpd 8, (1S,2R,3S,6R)-6-{7-[(1-methyl-1H-pyrrol-2-ylmethyl)-amino]-5-propylsulfanyl-[1,2,3]triazolo[4,5-d]pyrimidin-3-yl}-cyclohex-4-ene-1,2,3-triol]",IC50,ADP P2Y12,> 30 µM
"CCCSc1nc(NC[C@@H]2CCCO2)c2nnn([C@@H]3CC[C@H](O)[C@@H](O)[C@H]3O)c2n1 [Cpd 16, (1S,2R,3S,4R)-4-(5-propylsulfanyl-7-{[(2S)-tetrahydro-furan-2-ylmethyl]-amino}-[1,2,3]triazolo[4,5-d]pyrimidin-3-yl)-cyclohexane-1,2,3-triol]",IC50,ADP P2Y12,> 30 µM
"CCCSc1nc(NC[C@H]2CCCO2)c2nnn([C@@H]3CC[C@H](O)[C@@H](O)[C@H]3O)c2n1 [Cpd 17, (1S,2R,3S,4R)-4-(5-propylsulfanyl-7-{[(2R)-tetrahydro-furan-2-ylmethyl]-amino}-[1,2,3]triazolo[4,5-d]pyrimidin-3-yl)-cyclohexane-1,2,3-triol]",IC50,ADP P2Y12,> 30 µM
same,IC50,washed platelets,> 30 µM
"CCCSc1nc(NCc2ccco2)c2nnn([C@@H]3CC[C@H](O)[C@@H](O)[C@H]3O)c2n1 [Cpd 18, (1S,2R,3S,4R)-4-{7-[(furan-2-ylmethyl)-amino]-5-propylsulfanyl-[1,2,3]triazolo[4,5-d]pyrimidin-3-yl}-cyclohexane-1,2,3-triol]",IC50,ADP P2Y12,> 30 µM
"CCCCNc1nc(SCCC)nc2c1nnn2[C@@H]1CC[C@H](O)[C@@H](O)[C@H]1O [Cpd 19, (1S,2R,3S,4R)-4-(7-butylamino-5-propylsulfanyl-[1,2,3]triazolo[4,5-d]pyrimidin-3-yl)-cyclohexane-1,2,3-triol]",IC50,ADP P2Y12,2.93 µM
"CCCSc1nc(NCCc2cccs2)c2nnn([C@@H]3CC[C@H](O)[C@@H](O)[C@H]3O)c2n1 [Cpd 20, (1S,2R,3S,4R)-4-[5-propylsulfanyl-7-(2-thiophen-2-yl-ethylamino)-[1,2,3]triazolo[4,5-d]pyrimidin-3-yl]-cyclohexane-1,2,3-triol]",IC50,ADP P2Y12,> 30 µM
"CCCSc1nc(N[C@@H]2CCN(Cc3ccccc3)C2)c2nnn([C@@H]3CC[C@H](O)[C@@H](O)[C@H]3O)c2n1 [Cpd 22, (1S,2R,3S,4R)-4-{7-[(3R)-1-benzyl-pyrrolidin-3-ylamino]-5-propylsulfanyl-[1,2,3]triazolo[4,5-d]pyrimidin-3-yl}-cyclohexane-1,2,3-triol]",IC50,ADP P2Y12,> 30 µM

# Reference: patent publication US8148385B2, “Substituted [1,2,3] triazolo[4,5-d]pyrimidine derivatives as ADP P2Y12 receptor antagonists” (Janssen Pharmaceutica N.V., priority 2006, dated 2012)
